The record followed here is ChEMBL document CHEMBL5512621, “Overview of the development of protein arginine methyltransferase modulators: Achievements and future directions” (Eur J Med Chem, 2024).

Some results are limits rather than exact numbers.

The subject of experiment [1] is PC-3. The experiment is described as follows: Inhibition of cell growth in human PC-3 cells. It is filed as functional, cell-based.
For experiment [2], the system named is ES-2. The experiment is described as follows: Inhibition of cell growth in human ES2 cells. It is filed as functional, cell-based.
Experiment [3] relates to JeKo-1. The experiment is described as follows: Inhibition of cell growth in human JeKo-1 cells. The class given is functional, cell-based.
The target of experiment [4] is T1, Protein arginine N-methyltransferase 7 (Homo sapiens, UniProt Q9NVM4).
T1 sequence (Q9NVM4 whole entry): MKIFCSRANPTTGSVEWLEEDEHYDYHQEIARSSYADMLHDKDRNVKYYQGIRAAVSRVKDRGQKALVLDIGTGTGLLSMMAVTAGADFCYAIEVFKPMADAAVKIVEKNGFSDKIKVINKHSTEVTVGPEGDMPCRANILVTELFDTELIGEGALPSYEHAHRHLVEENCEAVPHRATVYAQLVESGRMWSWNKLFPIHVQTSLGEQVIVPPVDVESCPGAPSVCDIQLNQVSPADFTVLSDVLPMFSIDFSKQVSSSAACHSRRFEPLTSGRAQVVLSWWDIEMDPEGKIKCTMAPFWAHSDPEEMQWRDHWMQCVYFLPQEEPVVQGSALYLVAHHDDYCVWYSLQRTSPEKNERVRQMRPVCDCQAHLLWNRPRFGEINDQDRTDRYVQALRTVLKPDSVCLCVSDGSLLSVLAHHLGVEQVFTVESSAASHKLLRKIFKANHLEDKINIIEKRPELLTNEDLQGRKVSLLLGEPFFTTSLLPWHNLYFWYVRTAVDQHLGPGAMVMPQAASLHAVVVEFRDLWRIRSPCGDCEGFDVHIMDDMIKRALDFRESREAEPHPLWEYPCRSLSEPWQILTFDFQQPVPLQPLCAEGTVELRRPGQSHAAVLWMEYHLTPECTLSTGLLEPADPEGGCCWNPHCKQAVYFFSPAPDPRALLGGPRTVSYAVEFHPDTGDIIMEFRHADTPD
The experiment is described as follows: Inhibition of PRMT7 (unknown origin).

Experiment [5] addresses T2, Protein arginine N-methyltransferase 7 (Mus musculus, UniProt Q922X9).
T2 sequence (Q922X9 whole entry): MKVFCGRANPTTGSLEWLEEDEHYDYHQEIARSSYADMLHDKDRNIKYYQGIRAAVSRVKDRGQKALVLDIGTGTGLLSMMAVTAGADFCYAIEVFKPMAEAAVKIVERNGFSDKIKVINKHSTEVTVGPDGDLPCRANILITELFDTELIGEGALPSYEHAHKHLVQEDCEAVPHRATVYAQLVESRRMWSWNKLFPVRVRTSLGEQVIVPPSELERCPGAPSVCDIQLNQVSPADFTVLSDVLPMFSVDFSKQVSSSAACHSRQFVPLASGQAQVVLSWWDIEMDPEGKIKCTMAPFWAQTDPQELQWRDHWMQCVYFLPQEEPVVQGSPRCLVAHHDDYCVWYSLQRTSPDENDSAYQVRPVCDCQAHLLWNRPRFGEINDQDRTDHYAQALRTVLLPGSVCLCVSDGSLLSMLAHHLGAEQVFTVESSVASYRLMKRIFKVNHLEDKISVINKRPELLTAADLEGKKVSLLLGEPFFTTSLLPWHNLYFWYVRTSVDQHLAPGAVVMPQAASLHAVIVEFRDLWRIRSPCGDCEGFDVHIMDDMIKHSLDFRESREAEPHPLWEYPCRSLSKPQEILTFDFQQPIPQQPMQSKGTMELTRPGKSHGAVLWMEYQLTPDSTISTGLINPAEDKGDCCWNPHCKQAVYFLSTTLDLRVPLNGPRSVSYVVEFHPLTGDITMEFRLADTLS
The experiment is described as follows: Inhibition of PRMT7 in mouse C2C12 cells assessed as reduction in HSP70 methylation. It is filed as cell-based.

The term IC50 denotes the point on the concentration scale where inhibition reaches its midpoint. For the molecule `COc1cc(-c2ncc(F)c(Nc3ccc4cc(C)cc(N)c4c3)n2)cc(OC)c1OC`, the IC50 was below 10 µM in experiment [1], below 10 µM in experiment [2], below 10 µM in experiment [3] and 2100 nM in experiment [4].

Regarding `CC1=C(C)C(=O)C(C(C)(C)CC(=O)N(CCCCSC[C@H]2O[C@@H](n3cnc4c(N)ncnc43)[C@H](O)[C@@H]2O)Cc2ccc(-c3ccc(Cl)cc3)cc2)=C(C)C1=O`, the IC50 in experiment [5] is 2400 nM.
